Test results reported in US20030139469A1, “Use of inhibitors of soluble epoxide hydrolase to inhibit vascular smooth muscle cell proliferation” (THE REGENTS OF THE UNIVERSITY OF CALIFORNIA, priority 2002, published 2003).
“Also recorded” adds a separate entry of the source.

Experiments:
[1] = system: soluble epoxide hydrolase (sEH); conditions: cited from earlier work
porcine aortic VSM cells = conditions: 14,15-EET 2 μM, chalcone oxide with PDGF and exogenous EETs; cited from earlier work
[2] = system: soluble epoxide hydrolase (sEH); assay: inhibition of soluble epoxide hydrolase; type: biochemical, human
Description: Epoxide hydrolases (“EH;” EC 3.3.2.3) are enzymes in the alpha beta hydrolase fold family that add water to 3 membered cyclic ethers termed epoxides. Soluble epoxide hydrolase (sEH) is an enzyme which in endothelial and smooth muscle cells converts EETs to dihydroxy derivatives called dihydroxyeicosatrienoic acids (DHETs). The cloning and sequence of the murine sEH is set forth in Grant et al., J. Biol. Chem. 268(23):17628-17633 (1993). The cloning, sequence, and accession numbers of the human sEH sequence are set forth in Beetham et al., Arch. Biochem. Biophys. 305(1): 197-201 (1993). The evolution and nomenclature of the gene is discussed in Beetham et al., DNA Cell Biol. 14(1):61-71 (1995). Unless otherwise specified, as used herein, the terms “soluble epoxide hydrolase” and “sEH” refer to human sEH. Derivatives of urea are transition state mimetics that form a preferred group of sEH inhibitors. […] Any particular urea derivative or other compound can be easily tested for its ability to inhibit sEH by standard assays, such as the one used in the Examples herein. […] The enzyme also can be detected based on the binding of specific ligands to the catalytic site which either immobilize the enzyme or label it with a probe such as luciferase, green fluorescent protein or other reagent. […]

metabolic stability = type: in vitro ADME
[3] = system: spontaneously hypertensive rats; conditions: injection; cited from earlier work

Structure (SMILES): O=C(c1ccccc1)C1OC1c1ccc(-c2ccccc2)cc1 (stereo not drawn) [4-phenylchalcone oxide, reference compound]
- in vitro inhibition of epoxide hydrolases [1]: potent
- PDGF-mediated DNA synthesis / mitogenesis (porcine aortic VSM cells): additive increase in mitogenesis

Structure (SMILES): CCCCCC1OC1C/C=C\C/C=C\C/C=C\CCCC(=O)O (stereo not drawn) [14,15-EET]
- PDGF-mediated DNA synthesis / mitogenesis (porcine aortic VSM cells): increase PDGF-mediated DNA synthesis

Structure (SMILES): CCCCCCCCCCCCNC(=O)NC12CC3CC(CC(C3)C1)C2 [ADU, N-adamantyl-N′-dodecyl urea]
- activity as an inhibitor of sEH [2]: particularly high activity
- metabolic stability (metabolic stability): metabolically stable

Structure (SMILES): O=C(NC1CCCCC1)NC1CCCCC1 [DCU, N,N′-dicyclohexylurea]
- systemic blood pressure [3]: lowering of blood pressure; also recorded: lower systemic blood pressure
